According to patent US9464106B2, “Oligonucleotides useful for detecting and analyzing nucleic acids of interest” (Exiqon A/S, priority 2002, dated 2016):
l = locked nucleic acid (LNA); [5mC] = 5-methylcytosine; d = 2'-deoxy (DNA)

Tested on: yeast HSP78 (YDR258C) sequence
Experiment: Duplex melting temperatures of HSP78 25-mer capture probes (UV spectrophotometer)
Conditions: 25-mer capture probe duplex with complementary target; design PM = perfectly matched, MM = single mismatch; DNA, LNA_T (T) or LNA_TC (TC) substituted

Row | Substance | Average duplex melting temp. [°C]
1 | 12729 (DNA CAATGATCGTGTTACGGAAATCAAC; sugars from the 5' end lddlddlldlddddldddddllddd, [5mC] at 1, 8, 15, 22, backbone not given here; further chemistry not fully specified) [compound 12729] | 75.5
2 | 12730 (DNA TGGCCTAGGGAAACGGTCAGCTTAC; sugars from the 5' end lddldlddddddddddldddldldd, [5mC] at 4, 21, backbone not given here) [compound 12730] | 75.5
3 | 12731 (DNA TTGGAAACATCGCGGTGCGCTTTTT; sugars from the 5' end lldddddlddlddddldldddldld, [5mC] at 8, 11, 18, backbone not given here) [compound 12731] | 72
4 | 12732 (DNA GAAACATCGGGGAGCGCTTTTTCAA; sugars from the 5' end ddddldllddddddldddddldldd, [5mC] at 5, 8, 15, 23, backbone not given here) [compound 12732] | 74.8
5 | 12733 (DNA GACAGCCTCAGTAAATTGGCCACCA; sugars from the 5' end ddlddldldddddddlldddlddld, [5mC] at 3, 6, 21, 24, backbone not given here) [compound 12733] | 77.4
6 | 12734 (DNA CCGATTAAACGACAGACAGTATGCT; sugars from the 5' end llddlldddlddddddlddldldld, [5mC] at 1, 2, 10, 17, 24, backbone not given here) [compound 12734] | 70.2
7 | 12735 (DNA ATCAAATAGGAAATCAGCTAAAGCC; sugars from the 5' end dlldddldddddddlddllddddld, [5mC] at 3, 15, 18, 24, backbone not given here) [compound 12735] | 64.6
8 | 12736 (DNA GACCTAAGAACAAAAAGCTGGCAAT; sugars from the 5' end ddllldddddlddddddllddlddd, all C 5-methyl, backbone not given here) [compound 12736] | 71.4
9 | 12737 (DNA AAATAGCAGCAAAGGCCTCGTCTTG; sugars from the 5' end dddlddlddldddddldlldlddld, [5mC] at 7, 10, 16, 19, backbone not given here) [compound 12737] | 79.3
10 | 12738 (DNA ATAGCAGCAATGCCCTCGTCTTGGC; sugars from the 5' end dlddldddddlddddldddldlddd, [5mC] at 5, 20, backbone not given here) [compound 12738] | 71.5
11 | 12739 (DNA GCAATGGCCTCGACTTGGCCAACGA; sugars from the 5' end d10 l1 d2 l1 d11, [5mC] at 11, 14, backbone not given here) [compound 12739] | 73.1
12 | 12740 (DNA GATGAACTCAGGAGGATAGGATCTT; sugars from the 5' end ddldddllldddddddlddddllld, all C 5-methyl, backbone not given here) [compound 12740] | 70.4
13 | 12741 (DNA TCAGTTAGCCAAACCTTCGCTTCAT; sugars from the 5' end dlddlddddlddddddlddlddldd, [5mC] at 2, 10, 20, 23, backbone not given here) [compound 12741] | 70.6
14 | 12742 (DNA GTTGCCATGGAGATCAAAATCTGTC; sugars from the 5' end dlddlldlddddddlddddllddld, [5mC] at 5, 6, 15, 21, backbone not given here) [compound 12742] | 61.6
15 | 12743 (DNA AGACGTACAGCAACAGAAATAGCAG; sugars from the 5' end dddldldlddlddddddddlddldd, [5mC] at 4, 8, 11, 23, backbone not given here) [compound 12743] | 73.6
16 | 12744 (DNA TTTGGTAGCACGTCAAGCTTAGTAT; sugars from the 5' end ldlddlddldlddddddldlddldd, [5mC] at 9, 11, 18, backbone not given here) [compound 12744] | 73.3
17 | 12745 (DNA ATAAAGCTGGCATTAGGTCTCTTTT; sugars from the 5' end dlddddllddlddddddllldllld, [5mC] at 7, 11, 19, backbone not given here) [compound 12745] | 74
18 | 12746 (DNA TTTTTCGGCCAATCGATCTTGAATT; sugars from the 5' end ldldllddlldddddddldldddld, [5mC] at 6, 9, 10, 18, backbone not given here) [compound 12746] | 71
19 | 12747 (DNA CACTCTAACAGTATCGCCGTTTCTA; sugars from the 5' end ldldldddldddddddlddldllld, [5mC] at 1, 3, 5, 9, 17, 23, backbone not given here) [compound 12747] | 75.2
20 | 12748 (DNA TCAATGGCCTTGGACCATATAATTG; sugars from the 5' end llddlddldllddddldldlddlld, [5mC] at 2, 8, 16, backbone not given here) [compound 12748] | 74.8
21 | 12749 (DNA AAAACGACAGCAAAAGGCTTTCTTC; sugars from the 5' end ddddlddlddlddddddlldlldld, [5mC] at 5, 8, 11, 18, 22, backbone not given here) [compound 12749] | 72
22 | 12750 (DNA ATTGACCTCAAATCTTTCTTGGATA; sugars from the 5' end dllddlllldddddlldllldddld, [5mC] at 6, 7, 9, 18, backbone not given here) [compound 12750] | 72.2
23 | 12751 (DNA CCCAACTTTGTGACGTTTAATAAAA; sugars from the 5' end llldddllddlddddlllddldddd, [5mC] at 1, 2, 3, backbone not given here) [compound 12751] | 67.6
24 | 12752 (DNA ACCATCATCACCCAACTTTGTGTCG; DNA, backbone not given here; further chemistry not fully specified) [compound 12752] | 67.5
25 | 12753 (DNA CAATGATCGTGTTACGGAAATCAAC; DNA, backbone not given here; further chemistry not fully specified) [compound 12753] | 64.2
26 | 12754 (DNA TGGCCTAGGGAATCGGTCAGCTTAC; DNA, backbone not given here; further chemistry not fully specified) [compound 12754] | 70.1
27 | 12755 (DNA TTGGAAACATCGGGGTGCGCTTTTT; DNA, backbone not given here; further chemistry not fully specified) [compound 12755] | 70.8
